{
  "source": "patent US20240216339A1",
  "about": "“METHODS OF TREATING NEUROPSYCHIATRIC DISORDERS” (GILGAMESH PHARMACEUTICALS, INC., priority 2021, published 2024)",
  "key": {"C57BL/6 mice": {"tested_on": "C57BL/6 mice", "assay": "Head twitch response (HTR) to 4-HO-MET after vehicle or daridorexant pre-treatment", "type": "in vivo, mouse", "details": "4-HO-MET 0.32-3.2 mg/kg s.c.; vehicle (0.5% methylcellulose) pretreatment; 20 min period; FIG. 5", "method": "Administration of 5-HT2A receptor agonists in mice induces a robust head twitch response (HTR). The number of head twitches observed in mice is recognized as an indicator of the degree of psychedelic effects (Halberstadt et al 2020). To determine whether the HTR induced by 5-HT2A receptor agonists is modulated by dual orexin receptor antagonists, a study was performed comparing the HTR induced by a 5-HT2A receptor agonist, 4-hydroxy-N-methyl-N-ethyltryptamine (4-HO-MET), after pre-treatment with either vehicle or the dual orexin receptor antagonist daridorexant.\nMale C57BL/6 mice (˜6-8 Week; Hylasco, Hyderabad, India) were pair-housed under standard conditions on a 12-h light cycle with free access to food and water. On the test day, mice were randomly assigned to one of 6 treatment groups (see Table 1 below). Mice were dosed orally with 0.5% methylcellulose or daridorexant at t=−30 min followed by a subcutaneous (s.c.) injection of 4-HO-MET (0.32, 1, or 3.2 mg/kg) at t=0 min. Mice were then immediately placed in a chamber and the number of head twitches in a 20 min period post 4-HO-MET injection (t=0-20 min) were counted manually by a blinded, trained observer."}, "individuals": {"tested_on": "individuals", "details": "anecdotal; individuals who fell asleep while taking LSD; more than 12 hours after the dose; cited from earlier work"}, "[1]": {"tested_on": "sleep-wake behaviour in Sprague Dawley rats", "assay": "EEG/EMG sleep-wake study of daridorexant, psilocybin and their combination", "type": "in vivo, rat", "method": "The aim of this study was to investigate the effects of daridorexant, psilocybin, and the combination of the two compounds, on sleep-wake behaviour in Sprague Dawley rats, across the circadian cycle. Daridorexant is a dual orexin receptor antagonist used for treating insomnia. Psilocybin is a 5-HT2A receptor agonist with psychedelic properties and relatively short half-life. The study was conducted at Transpharmation, UK, under Study IDs EEG079a and EEG079c.\n8 male Sprague Dawley rats (Charles River, UK) were used in the study. Animals were housed in groups of 2-3 with standard conditions. Average weight at start of dosing was 433-517 g, corresponding to ˜ 14 weeks old.\nThe animals were anaesthetised with isoflurane (2-5% in oxygen at 1 L/min) throughout the procedure. The scalp, neck, and right flank were cleared of hair using clippers and cleaned using diluted Hibitane (50% (v/v) in water). A non-steroidal anti-inflammatory agent was administered (Carprofen 5 mg/kg, subcutaneously (s.c.)) and the animals placed on a homeothermic blanket (37° C.) with the head fixed in a stereotaxic frame. Incisions were made in the scalp and neck, as well as in the right flank. Blunt dissection of the abdominal muscle was then made to gain access to the peritoneal cavity. A radio transmitter (HD-S02, Data Sciences International) was implanted in the peritoneal cavity and secured to the muscle wall with non-absorbable sutures. The wires of the transmitter were passed using a 16 G needle through the muscle wall and then sub-dermally to the scalp to act as EEG/EMG electrodes. The scalp was cleared of connective tissue and two craniotomies were made with a trepanning drill (fronto-parietal coordinates; Bregma+2 mm anterior, midline+1.0 mm lateral, and Lambda 0 mm, +1.5 mm lateral). The positive EEG electrode was attached to the anterior craniotomy and the negative EEG electrode to the posterior craniotomy. Both electrodes were secured in place using a suitable adhesive agent (cyanoacrylate gel, RS components). A second set of electrodes were sutured into the nuchal muscle to act as EMG electrodes. All incisions were closed using absorbable suture.\nAll animals were allowed to recover in a warm environment and given 5 mL of saline s.c. Animals were kept singly in the cage until the next day, then pair housed for the duration of post-surgical recovery (minimum 7 days). During the recovery period the rats received 5 days of standard post-operative care with no further experimental procedures until the pre-operative body weight was regained. The animals were maintained on a 12/12 h light-dark cycle (08:00 am lights on) after the surgery.\nOn study days, at ˜30 min after lights-on, animals were placed in recording boxes similar to their home cages and data acquisition was begun for confirmation of signal quality. After 30 min, each animal was briefly removed from its box to be dosed (see schedule below). Animals were immediately put back into the recording boxes, the experimenter left the room, and recordings continued uninterrupted for ˜23 h. At the end of the recording session, the transmitters were turned off and the animals were returned to their home cages. Animals received treatment conditions in a pseudo randomised cross-over fashion with a minimum period of 7 days between doses.\nDaridorexant was administered p.o. at a volume of 5 mL/kg with 0.5% methylcellulose vehicle (Vehicle 1), at doses of 30 mg/kg or 100 mg/kg. Psilocybin was administered s.c. at a volume of 3 mL/kg with saline vehicle (Vehicle 2), at doses of 0.5 mg/kg, 1 mg/kg, or 3 mg/kg.\nEEG, EMG, and locomotor activity data were acquired for ˜23 h post dosing using intraperitoneal HD-S02 transmitters (DSI, New Brighton, MN) and Spike2 software (CED, Cambridge UK). EEG/EMG signals were amplified, analogue filtered (0.5-100 Hz), digitized (256 Hz), and then digitally filtered (EEG: 0.5-100 Hz and EMG: 70-100 Hz). […]"}, "[2]": {"tested_on": "patients with major depressive disorder (MDD)", "details": "discontinued Phase II study; cited from earlier work"}, "[3]": {"tested_on": "major depressive disorder (MDD)", "details": "cited from earlier work"}, "[4]": {"details": "first 4 h after dosing, daridorexant at both 30 and 100 mg/kg p.o., FIG. 1B"}},
  "data": [
    {"smiles": "CCN(C)CCc1c[nH]c2cccc(O)c12", "note": "[4-HO-MET, 4-hydroxy-N-methyl-N-ethyltryptamine]", "values": [
      {"measurement": "number of head twitches (HTR)", "setting": "C57BL/6 mice", "value": "produced HTR in a dose-dependent manner"}
    ]},
    {"smiles": "CCN(CC)C(=O)[C@@H]1C=C2c3cccc4[nH]cc(c34)C[C@H]2N(C)C1", "note": "[LSD, lysergic acid diethylamide]", "values": [
      {"measurement": "next day creativity and vigor", "setting": "individuals", "value": "next day enhanced creativity and vigor"}
    ]},
    {"smiles": "COc1ccc(-n2nccn2)c(C(=O)N2CCC[C@@]2(C)c2nc3c(C)c(Cl)ccc3[nH]2)c1", "note": "[daridorexant]", "values": [
      {"measurement": "percentage of time spent in Wake across 22 h", "setting": "[1]; first 2 h after dosing, daridorexant alone 30, 100 mg/kg, FIG. 3A", "value": "wakefulness reduction"},
      {"measurement": "percentage of time spent in NREM across 22 h", "setting": "[1]; first 2 h after dosing, daridorexant alone 30, 100 mg/kg, FIG. 3B", "value": "promotion of NREM and REM sleep"},
      {"measurement": "percentage of time spent in REM across 22 h", "setting": "[1]; first 2 h after dosing, daridorexant alone 30, 100 mg/kg, FIG. 3C", "value": "promotion of NREM and REM sleep"},
      {"measurement": "percentage of time spent in Wake", "setting": "[1]; [4]", "value": "acutely reduced wakefulness for the first 2 h after dosing"},
      {"measurement": "percentage of time spent in sleep (NREM, REM)", "setting": "[1]; [4]", "value": "promoting sleep, especially NREM sleep"},
      {"measurement": "REM sleep onset latency", "setting": "[1]; psilocybin 1, 3 mg/kg, daridorexant 30, 100 mg/kg, combinations D100+P1, D30+P1, FIG. 2A", "value": "dose-dependent decrease"},
      {"measurement": "NREM sleep onset latency", "setting": "[1]; psilocybin 1, 3 mg/kg, daridorexant 30, 100 mg/kg, combinations D100+P1, D30+P1, FIG. 2B", "value": "reduction"}
    ]},
    {"smiles": "Cc1ccc(-c2ncccn2)c(C(=O)N2C[C@H](COc3ccc(F)cn3)CC[C@H]2C)c1", "note": "[filorexant]", "values": [
      {"measurement": "separation from placebo in MDD", "setting": "[2]", "value": "did not separate from placebo"}
    ]},
    {"smiles": "Cc1cc(C)nc(N2CC3CN(C(=O)c4c(F)cccc4-n4nccn4)CC3C2)n1", "note": "(stereo not drawn) [seltorexant, Seltorexant]", "values": [
      {"measurement": "(left posterior) EEG power", "setting": "[3]; compared to placebo", "value": "overall increase"},
      {"measurement": "delta power during stage 2 sleep", "setting": "[3]; compared to placebo", "value": "relative increase"},
      {"measurement": "theta, alpha, and beta power during stage 2 sleep", "setting": "[3]; compared to placebo", "value": "decrease"},
      {"measurement": "antidepressant efficacy with continued treatment", "setting": "[3]; continued treatment up to 28 days", "value": "maintained"},
      {"measurement": "core depressive symptoms compared to placebo", "setting": "[3]; ten days of treatment, seen at day 11", "value": "significant improvement"}
    ]}
  ]
}
